What was measured:
[1] = biological target: T1, Prostaglandin G/H synthase 1 (Ovis aries, UniProt P05979); assay: Inhibition of sheep COX1-mediated PGE2 production after 2 mins by liquid scintillation counting
T1 sequence (P05979 whole entry): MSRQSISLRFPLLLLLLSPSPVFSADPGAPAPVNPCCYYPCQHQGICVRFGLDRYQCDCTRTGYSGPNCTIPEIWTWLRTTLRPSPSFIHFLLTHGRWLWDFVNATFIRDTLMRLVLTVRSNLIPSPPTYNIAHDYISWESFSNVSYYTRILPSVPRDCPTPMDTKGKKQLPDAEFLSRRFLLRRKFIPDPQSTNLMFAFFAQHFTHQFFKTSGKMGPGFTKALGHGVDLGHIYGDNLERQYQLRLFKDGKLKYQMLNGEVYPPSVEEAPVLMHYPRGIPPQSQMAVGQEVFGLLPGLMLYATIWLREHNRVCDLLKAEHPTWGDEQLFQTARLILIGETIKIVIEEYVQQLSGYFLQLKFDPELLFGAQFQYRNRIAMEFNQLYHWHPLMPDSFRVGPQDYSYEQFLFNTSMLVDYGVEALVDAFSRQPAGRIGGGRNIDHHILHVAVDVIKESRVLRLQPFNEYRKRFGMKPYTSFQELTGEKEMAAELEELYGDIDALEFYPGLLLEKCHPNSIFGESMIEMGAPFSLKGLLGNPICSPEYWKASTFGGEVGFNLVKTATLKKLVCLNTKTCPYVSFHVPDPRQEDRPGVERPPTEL

[2] = biological target: T2, Prostaglandin G/H synthase 2 (Ovis aries, UniProt P79208); assay: Inhibition of sheep COX2-mediated PGE2 production after 2 mins by liquid scintillation counting
T2 sequence (P79208 whole entry): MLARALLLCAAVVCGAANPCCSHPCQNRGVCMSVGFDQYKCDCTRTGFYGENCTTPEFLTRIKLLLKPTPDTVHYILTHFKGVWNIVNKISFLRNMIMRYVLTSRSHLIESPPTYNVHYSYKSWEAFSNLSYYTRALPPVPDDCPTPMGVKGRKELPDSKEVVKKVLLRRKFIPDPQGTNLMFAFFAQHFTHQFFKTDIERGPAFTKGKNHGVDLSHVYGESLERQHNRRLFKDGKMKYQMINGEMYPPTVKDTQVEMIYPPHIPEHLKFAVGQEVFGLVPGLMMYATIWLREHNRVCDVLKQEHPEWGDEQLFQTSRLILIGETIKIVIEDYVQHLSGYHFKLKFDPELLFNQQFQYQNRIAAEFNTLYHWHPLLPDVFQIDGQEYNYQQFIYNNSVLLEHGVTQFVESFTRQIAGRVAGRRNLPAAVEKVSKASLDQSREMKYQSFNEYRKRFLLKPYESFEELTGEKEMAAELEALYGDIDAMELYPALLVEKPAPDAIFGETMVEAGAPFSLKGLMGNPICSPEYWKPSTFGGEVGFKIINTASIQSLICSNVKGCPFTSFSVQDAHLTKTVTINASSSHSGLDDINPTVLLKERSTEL

| SMILES | IC50 ([1]; read-out: IC50) [µM] | IC50 ([2]; read-out: IC50) [µM] | IC50 [1] | IC50 [2] |
| --- | --- | --- | --- | --- |
| CCCCCCCCCCCC(=O)O[C@@H]1[C@@H](O)[C@@H](OC(=O)/C=C/c2ccccc2)[C@H](O[C@@H]2[C@@H](OC(=O)CCCCCCCCC)[C@@H](O)[C@H](O[C@@H]3[C@@H](O)[C@H]4OC(=O)CCCCCCCCC[C@H](CCCCC)O[C@@H]5O[C@H](C)[C@H](O)[C@H](O)[C@H]5O[C@@H]4O[C@H]3C)O[C@H]2C)O[C@H]1C [IPOMOTAOSIDE A] | 9.3 | 14.5 |  |  |
| CCCCCCCCCCCC(=O)O[C@@H]1[C@@H](O)[C@@H](OC(=O)/C=C/c2ccccc2)[C@H](O[C@@H]2[C@@H](O)[C@@H](OC(=O)CCCCCCCCCCC)[C@H](O[C@@H]3[C@@H](O)[C@H]4OC(=O)CCCCCCCCC[C@H](CCCCC)O[C@@H]5O[C@H](C)[C@H](O)[C@H](O)[C@H]5O[C@@H]4O[C@H]3C)O[C@H]2C)O[C@H]1C [IPOMOTAOSIDE B] | 132 | 147 |  |  |
| CCCCCCCCCCCC(=O)O[C@@H]1[C@@H](O)[C@@H](OC(=O)/C=C/c2ccccc2)[C@H](O[C@@H]2[C@@H](O)[C@@H](OC(=O)CCCCCCCCC)[C@H](O[C@@H]3[C@H]4OC(=O)CCCCCCCCC[C@H](CCCCC)O[C@@H]5O[C@H](C)[C@H](O)[C@H](O)[C@H]5O[C@H](O[C@H]3C)[C@@H]4O)O[C@H]2C)O[C@H]1C [IPOMOTAOSIDE C] |  |  | Not Active | Not Active |
| CCCCCCCCCCCC(=O)O[C@@H]1[C@@H](O)[C@@H](OC(=O)/C=C/c2ccccc2)[C@H](O[C@@H]2[C@@H](OC(=O)CCCCCCCCC)[C@@H](O)[C@H](O[C@@H]3[C@H]4OC(=O)CCCCCCCCC[C@H](CCCCC)O[C@@H]5O[C@H](C)[C@H](O)[C@H](O)[C@H]5O[C@H](O[C@H]3C)[C@@H]4O)O[C@H]2C)O[C@H]1C [IPOMOTAOSIDE D] |  |  | Not Active | Not Active |
